Species: Rattus norvegicus
Assay: Open TG-GATES - Regimen: Single
Type: toxicity, organism-based, Sprague-Dawley
Parameters: regimen Single, gender Male, age 6 weeks
Settings: in vivo, po, 300 mg/kg, route gavage, dose level Low; for APTT / Bas / Eos / Fbg / Hb / Ht / Lym / MCH / MCHC / MCV / Mono / Neu / PT / Plat / RBC / Ret / WBC: tissue Blood; for KIDNEY_L / KIDNEY_R / KIDNEY_TOTAL: tissue Kidney; for LIVER: tissue Liver; for A/G / ALP / ALT / AST / BUN / CRE / Ca / Cl / DBIL / GLC / IP / K / LDH / Na / PL / RALB / TBIL / TC / TG / TP / gamma-GTP: tissue Plasma

Compound: COc1ccc(O)c(C(C)(C)C)c1.COc1ccc(O)cc1C(C)(C)C [BUTYLATED HYDROXYANISOLE]
- TERMINAL_BW (3 h): 204.6 g
- APTT (3 h): 16.4 s
- Bas (3 h): 0.2%
- Eos (3 h): 0.6%
- Fbg (3 h): 281.2 mg/dL
- Hb (3 h): 13.8 g/dL
- Ht (3 h): 39.9%
- Lym (3 h): 75%
- MCH (3 h): 21.7 pg
- MCHC (3 h): 34.5%
- MCV (3 h): 63.1 fL
- Mono (3 h): 2.5%
- Neu (3 h): 20.7%
- PT (3 h): 12 s
- Plat (3 h): 133.9 x10_4/uL
- RBC (3 h): 633.4 x10_4/ul
- Ret (3 h): 8.1%
- WBC (3 h): 97.5 x10_2/uL
- KIDNEY_L (3 h): 0.9 g
- KIDNEY_R (3 h): 0.9 g
- KIDNEY_TOTAL (3 h): 1.8 g
- LIVER (3 h): 8.5 g
- A/G (3 h): 0.8
- ALP (3 h): 1752.8 IU/L
- ALT (3 h): 41.8 IU/L
- AST (3 h): 75.4 IU/L
- BUN (3 h): 10.2 mg/dL
- CRE (3 h): 0.2 mg/dL
- Ca (3 h): 11.3 mg/dL
- Cl (3 h): 107.8 meq/L
- DBIL (3 h): 0.052 mg/dL
- GLC (3 h): 173.2 mg/dL
- IP (3 h): 9.1 mg/dL
- K (3 h): 3.9 meq/L
- LDH (3 h): 75.6 IU/L
- Na (3 h): 141.8 meq/L
- PL (3 h): 154.4 mg/dL
- RALB (3 h): 2.7 g/dL
- TBIL (3 h): 0.082 mg/dL
- TC (3 h): 80.8 mg/dL
- TG (3 h): 149.4 mg/dL
- TP (3 h): 5.8 g/dL
- gamma-GTP (3 h): 1 IU/L
- TERMINAL_BW (6 h): 202.1 g
- APTT (6 h): 16.2 s
- Bas (6 h): 0.2%
- Eos (6 h): 0.7%
- Fbg (6 h): 257.2 mg/dL
- Hb (6 h): 13.3 g/dL
- Ht (6 h): 39.1%
- Lym (6 h): 72%
- MCH (6 h): 21.2 pg
- MCHC (6 h): 33.9%
- MCV (6 h): 62.4 fL
- Mono (6 h): 2.5%
- Neu (6 h): 23.7%
- PT (6 h): 12.3 s
- Plat (6 h): 131.2 x10_4/uL
- RBC (6 h): 627.4 x10_4/ul
- Ret (6 h): 7.7%
- WBC (6 h): 91.5 x10_2/uL
- KIDNEY_L (6 h): 0.9 g
- KIDNEY_R (6 h): 0.9 g
- KIDNEY_TOTAL (6 h): 1.8 g
- LIVER (6 h): 7.9 g
- A/G (6 h): 0.9
- ALP (6 h): 1829.2 IU/L
- ALT (6 h): 38 IU/L
- AST (6 h): 72.8 IU/L
- BUN (6 h): 9.4 mg/dL
- CRE (6 h): 0.2 mg/dL
- Ca (6 h): 11.1 mg/dL
- Cl (6 h): 107.8 meq/L
- DBIL (6 h): 0.03 mg/dL
- GLC (6 h): 172.4 mg/dL
- IP (6 h): 10.3 mg/dL
- K (6 h): 4.2 meq/L
- LDH (6 h): 60.2 IU/L
- Na (6 h): 143.2 meq/L
- PL (6 h): 134.4 mg/dL
- RALB (6 h): 2.6 g/dL
- TBIL (6 h): 0.074 mg/dL
- TC (6 h): 75 mg/dL
- TG (6 h): 65.8 mg/dL
- TP (6 h): 5.7 g/dL
- gamma-GTP (6 h): 1.4 IU/L
- TERMINAL_BW (9 h): 199.4 g
- APTT (9 h): 16.9 s
- Bas (9 h): 0.2%
- Eos (9 h): 0.7%
- Fbg (9 h): 273.6 mg/dL
- Hb (9 h): 13.4 g/dL
- Ht (9 h): 39.1%
- Lym (9 h): 76.3%
- MCH (9 h): 20.7 pg
- MCHC (9 h): 34.3%
- MCV (9 h): 60.5 fL
- Mono (9 h): 1.9%
- Neu (9 h): 20.1%
- PT (9 h): 13.1 s
- Plat (9 h): 145.3 x10_4/uL
- RBC (9 h): 647.4 x10_4/ul
- Ret (9 h): 7.4%
- WBC (9 h): 69.4 x10_2/uL
- KIDNEY_L (9 h): 0.9 g
- KIDNEY_R (9 h): 0.9 g
- KIDNEY_TOTAL (9 h): 1.7 g
- LIVER (9 h): 7.5 g
- A/G (9 h): 0.8
- ALP (9 h): 1688.6 IU/L
- ALT (9 h): 30.6 IU/L
- AST (9 h): 66.4 IU/L
- BUN (9 h): 8.2 mg/dL
- CRE (9 h): 0.2 mg/dL
- Ca (9 h): 10.8 mg/dL
- Cl (9 h): 108 meq/L
- DBIL (9 h): 0.026 mg/dL
- GLC (9 h): 163.8 mg/dL
- IP (9 h): 10.1 mg/dL
- K (9 h): 4 meq/L
- LDH (9 h): 48.4 IU/L
- Na (9 h): 142.8 meq/L
- PL (9 h): 134.6 mg/dL
- RALB (9 h): 2.6 g/dL
- TBIL (9 h): 0.088 mg/dL
- TC (9 h): 77.4 mg/dL
- TG (9 h): 66 mg/dL
- TP (9 h): 5.6 g/dL
- gamma-GTP (9 h): 1.4 IU/L
- TERMINAL_BW (24 h): 215.1 g
- APTT (24 h): 15.4 s
- Bas (24 h): 0.3%
- Eos (24 h): 0.7%
- Fbg (24 h): 256.6 mg/dL
- Hb (24 h): 13 g/dL
- Ht (24 h): 38%
- Lym (24 h): 82.1%
- MCH (24 h): 21.3 pg
- MCHC (24 h): 34.1%
- MCV (24 h): 62.3 fL
- Mono (24 h): 2.3%
- Neu (24 h): 13.9%
- PT (24 h): 12 s
- Plat (24 h): 142.8 x10_4/uL
- RBC (24 h): 610.6 x10_4/ul
- Ret (24 h): 6.9%
- WBC (24 h): 97.1 x10_2/uL
- KIDNEY_L (24 h): 0.9 g
- KIDNEY_R (24 h): 0.9 g
- KIDNEY_TOTAL (24 h): 1.8 g
- LIVER (24 h): 9.6 g
- A/G (24 h): 0.9
- ALP (24 h): 1667 IU/L
- ALT (24 h): 47.2 IU/L
- AST (24 h): 79 IU/L
- BUN (24 h): 15 mg/dL
- CRE (24 h): 0.2 mg/dL
- Ca (24 h): 11.4 mg/dL
- Cl (24 h): 106.4 meq/L
- DBIL (24 h): 0.028 mg/dL
- GLC (24 h): 166.4 mg/dL
- IP (24 h): 7.8 mg/dL
- K (24 h): 4.2 meq/L
- LDH (24 h): 63 IU/L
- Na (24 h): 143.2 meq/L
- PL (24 h): 135.2 mg/dL
- RALB (24 h): 2.7 g/dL
- TBIL (24 h): 0.078 mg/dL
- TC (24 h): 78.2 mg/dL
- TG (24 h): 110.2 mg/dL
- TP (24 h): 5.7 g/dL
- gamma-GTP (24 h): 1 IU/L
